Results from US8114862B2, “TGR5 modulators and methods of use thereof” (Intercept Pharmaceuticals, Inc., priority 2008, dated 2012).
Like-named read-outs stand apart in the source and are kept apart here. Marks after values point to notes of the source that are not given here. Values belong to the molecule of their own block, whether it stands above or below them.

Columns and labels:
[1] = Critical micellar concentration by surface tension; type: physicochemical; conditions: […] NaCl water solution
Protocol: The critical micellar concentration (CMC) was determined by surface tension (ST) measurements using a maximum bubble-pressure method which give surface tension values […] by potential impurities like static methods are. The tensiometer was a […] Research Corp., Milwaukee, Wis.) equipped with two glass probes of 0.5 and 4.0 mm diameters connected to a source of nitrogen. […] The surface tension values were plotted against the logarithm of the bile salt concentration; the regression lines corresponding to the two parts of the curve (monomeric and micellar phases) were calculated using the method of least squares, and the intersection of the lines was taken as the CMC value. From the ST vs concentration curves the value of the surface tension at the CMC (equilibrium between monomers and multimers species) was also calculated giving information about the detergency power which is related to the size of the micelles with associate surface tension lowering capacity. The CMC was evaluated by surface tension measurements in non equilibrium conditions i.e. in conditions that impurities slightly affect the surface tension results (FIG. 10).

[2] = Octanol/water partition coefficient (shake-flask); type: physicochemical; conditions: pH 8
[3] = target: T1, bovine serum albumin (Bos taurus, UniProt P02769); experiment: Albumin binding by equilibrium dialysis; type: in vitro ADME; conditions: 100 μM BA in 5% bovine serum albumin-saline, pH 7.2
Protocol: The extent of albumin binding was evaluated by equilibrium dialysis at a fixed BA-albumin ratio. BA was dissolved at a concentration of 100 μM in 5% bovine serum albumin-saline solution (pH 7.2) and left to stand for 24 h at 25° C. Two milliliters of this solution was dialyzed in cellulose sacs having a molecular weight cut-off of 12-14,000 against 25 ml of saline solution. The system was equilibrated by mechanical gently shaking for 72 h at 25° C. BA concentrations of the dialyzed solution (corresponding to the free unbound fraction) and of the starting solution were determined with HPLC-ESI-MS/MS in the same conditions of the previous analysis.
The percent of albumin binding was calculate from the initial BA concentration and from the unbound concentration in the dialyzed fraction.

[4] = target: T2, LXRα (Homo sapiens, UniProt Q13133); experiment: LXR coactivator recruitment (alphascreen); type: biochemical
T2 sequence (Q13133 1-447): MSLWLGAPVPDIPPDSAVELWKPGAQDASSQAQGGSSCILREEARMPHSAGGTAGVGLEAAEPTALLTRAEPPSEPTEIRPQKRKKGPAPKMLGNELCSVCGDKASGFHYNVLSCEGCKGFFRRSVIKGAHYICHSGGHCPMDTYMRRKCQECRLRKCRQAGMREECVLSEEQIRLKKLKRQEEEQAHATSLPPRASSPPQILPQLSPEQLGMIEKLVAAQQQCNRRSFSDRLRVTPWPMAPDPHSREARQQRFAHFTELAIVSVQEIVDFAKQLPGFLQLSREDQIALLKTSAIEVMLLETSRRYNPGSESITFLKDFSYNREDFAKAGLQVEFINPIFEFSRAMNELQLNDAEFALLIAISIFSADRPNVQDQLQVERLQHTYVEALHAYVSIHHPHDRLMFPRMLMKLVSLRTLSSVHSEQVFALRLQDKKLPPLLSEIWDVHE

[5] = target: T3, CAR (Homo sapiens, UniProt Q14994); experiment: CAR coactivator recruitment (Lanthascreen); type: biochemical; conditions: for EC50: read-out: CAR Activation EC50
T3 construct: purchased Invitrogen
T3 sequence (Q14994 109-352 limits assumed): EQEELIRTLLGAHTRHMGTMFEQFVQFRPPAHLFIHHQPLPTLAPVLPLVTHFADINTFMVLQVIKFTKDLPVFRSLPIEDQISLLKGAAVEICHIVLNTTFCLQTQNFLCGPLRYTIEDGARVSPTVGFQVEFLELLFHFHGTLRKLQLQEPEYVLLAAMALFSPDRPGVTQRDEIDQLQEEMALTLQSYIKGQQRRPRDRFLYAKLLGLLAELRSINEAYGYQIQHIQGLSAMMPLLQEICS
Protocol: CAR: Coactivator Recruitment (Lanthascreen)
Lanthascreen assay (Invitrogen) was used for nulear receptor selectivity assay. The kit uses a terbium-labeled anti-GST antibody, a fluorescein-labeled coactivator peptide, and a NR ligand-binding domain that is tagged with glutathione-S-transferase (GST) in a homogenous mix-and-read assay format. […] Following 1 hour incubation in the dark, TR-FRET measurements were made in the Envision. […] The data was analyzed using GraphPad Prism using the sigmoidal curve equation with variable slope to obtain EC50 values.

[6] = Water solubility; conditions: 0.1 M HCl
[7] = tested on: HepG2 cells; experiment: HepG2 cytotoxicity (ATP decrease); conditions: read-out: CYTOTOXICITY ATP decrease EC50; 4 h
[8] = target: T4, VDR (Homo sapiens, UniProt P11473); experiment: VDR coactivator recruitment assay
T4 sequence (P11473 127-423 limits assumed): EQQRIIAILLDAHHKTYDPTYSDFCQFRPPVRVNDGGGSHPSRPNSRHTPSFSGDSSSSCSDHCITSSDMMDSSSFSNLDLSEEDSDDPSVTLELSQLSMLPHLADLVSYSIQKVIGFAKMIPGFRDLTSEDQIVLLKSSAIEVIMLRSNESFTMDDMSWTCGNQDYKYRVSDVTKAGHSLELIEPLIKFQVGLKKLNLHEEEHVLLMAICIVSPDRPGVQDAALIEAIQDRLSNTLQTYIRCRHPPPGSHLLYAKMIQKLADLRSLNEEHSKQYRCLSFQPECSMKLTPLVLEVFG

[9] = target: T5, PPARδ (Homo sapiens, UniProt Q03181); experiment: PPARδ coactivator recruitment assay
T5 sequence (Q03181 211-439 limits assumed): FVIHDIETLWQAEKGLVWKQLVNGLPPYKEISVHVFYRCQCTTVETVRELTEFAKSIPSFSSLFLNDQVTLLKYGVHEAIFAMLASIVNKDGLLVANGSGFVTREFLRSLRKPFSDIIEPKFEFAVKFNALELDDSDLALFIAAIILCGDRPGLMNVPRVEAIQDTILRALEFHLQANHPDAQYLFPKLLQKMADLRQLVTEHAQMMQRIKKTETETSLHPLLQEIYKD

[10] = in vitro; conditions: human, s9
[11] = tested on: HepG2 cells; experiment: cells; conditions: Homo sapiens, HepG2, 4 h, read-out: APOPTOSIS Caspase-3 activation EC50
[12] = tested on: HepG2 cells; experiment: cells; conditions: Homo sapiens, HepG2, 4 h, read-out: NECROSIS LDH release EC50
[13] = in vitro; conditions: human, HepG2 cells
[14] = target: T6, FXR (Homo sapiens, UniProt Q96RI1); experiment: Alphascreen coactivator recruitment assay; type: biochemical; parameters: 10 nM of purified GST-tagged FXR-LBD protein; conditions: Table 8
T6 sequence (Q96RI1 262-486 limits assumed): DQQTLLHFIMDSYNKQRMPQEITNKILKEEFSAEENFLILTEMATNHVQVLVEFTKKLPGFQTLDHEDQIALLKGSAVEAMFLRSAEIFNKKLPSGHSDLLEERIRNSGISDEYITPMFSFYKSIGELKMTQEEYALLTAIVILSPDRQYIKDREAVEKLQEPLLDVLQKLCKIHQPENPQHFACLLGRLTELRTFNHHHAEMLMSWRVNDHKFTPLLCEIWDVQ

[15] = target: T7, TGR5 (Homo sapiens, UniProt Q8TDU6); experiment: TGR5 receptor in vitro assay (Table 1); type: cell-based
T7 sequence (Q8TDU6 1-330): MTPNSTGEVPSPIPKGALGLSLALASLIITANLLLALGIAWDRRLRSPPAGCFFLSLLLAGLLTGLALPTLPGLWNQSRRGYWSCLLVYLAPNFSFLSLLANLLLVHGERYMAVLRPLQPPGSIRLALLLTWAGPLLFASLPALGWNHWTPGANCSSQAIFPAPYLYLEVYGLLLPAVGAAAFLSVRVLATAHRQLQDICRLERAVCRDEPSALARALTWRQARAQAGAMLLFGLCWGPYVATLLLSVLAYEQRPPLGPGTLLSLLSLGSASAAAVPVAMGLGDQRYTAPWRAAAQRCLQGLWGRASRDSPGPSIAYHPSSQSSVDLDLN

[16] = tested on: intestinal bacteria; experiment: Metabolic stability in human stool culture (7α-dehydroxylation); type: in vitro ADME
Protocol: Homogenized fresh human stools (500 mg) were transferred into sterile vials to which 5 mL of sterilized chopped meat-glucose medium (Scott Lab., Fiskville, R.I.) was added. BA was then added at a final concentration of 0.05 mM. […] The samples were centrifuged at 3500 rpm for 10 min; from the supernatant the BA were isolated by C-18 solid-phase extraction and analyzed by TLC and HPLC-ES-MS/MS.
Thin-layer chromatography (TLC), utilizing silica gel 0.25 mm thickness plates (Merck, Darmstat, Germany), was employed as the first screening test. The solvent system used for the separation of conjugated BA was composed of propionic acid/isoamyl acetate/water/N-propanol (3:4:1:2, v/v/v/v; solvent I), and that of the unconjugated BA was acetic acid/carbon tetrachloride/isopropyl ether/isoamyl acetate/water/N-propanol/benzene (1:4:6:8:2:2, v/v/v/v/v/v; solvent II).

[17] = Choleretic effect (bile flow) in bile fistula rat, id and iv infusion; type: in vivo; conditions: for SV0: maximum bile secretion rate: 1 (μmol/min)/kg bw over 1 h
[18] = Biliary secretion and metabolism in bile fistula rat, id and iv infusion; conditions: rat, bile, 1 μmol/kg/min
[19] = tested on: diet-induced obese mice; conditions: 0.5% w/w in diet; cited from earlier work
[20] = tested on: wild-type mice; experiment: Locomotor activity of wild-type mice given Ex-4; type: in vivo, mouse
Excerpt: To further evaluate the metabolic role of enhanced TGR5 signaling, we assessed the impact of transgenic overexpression of TGR5 in vivo in the context of DIO in mice. TGR5 transgenic mice (TGR5-Tg) were generated by oocyte injection of the bacterial artificial chromosome (BAC) RP23-278N1. […] The absence of weight gain in TGR5-Tg mice, in the wake of an increase in energy expenditure, was explained by a reduction of locomotor activity. Since GLP-1 receptor knockout mice display a marked hyperactivity (Hansotia et al., 2007, J. Clin. Invest. 117, 143-152), we administered the GLP-1 receptor agonist Ex-4 to wild-type mice in order to assess whether the decrease in locomotor activity in TGR5-Tg mice could be linked to GLP-1 secretion.

[21] = values from literature; cited from earlier work
[22] = values from literature; cited from earlier work; remark: listed apart in the source
[23] = values from literature; cited from earlier work; remark: listed apart in the source
[24] = target: T1, bovine serum albumin; conditions: values from literature; cited from earlier work

T1 sequence (P02769 25-607): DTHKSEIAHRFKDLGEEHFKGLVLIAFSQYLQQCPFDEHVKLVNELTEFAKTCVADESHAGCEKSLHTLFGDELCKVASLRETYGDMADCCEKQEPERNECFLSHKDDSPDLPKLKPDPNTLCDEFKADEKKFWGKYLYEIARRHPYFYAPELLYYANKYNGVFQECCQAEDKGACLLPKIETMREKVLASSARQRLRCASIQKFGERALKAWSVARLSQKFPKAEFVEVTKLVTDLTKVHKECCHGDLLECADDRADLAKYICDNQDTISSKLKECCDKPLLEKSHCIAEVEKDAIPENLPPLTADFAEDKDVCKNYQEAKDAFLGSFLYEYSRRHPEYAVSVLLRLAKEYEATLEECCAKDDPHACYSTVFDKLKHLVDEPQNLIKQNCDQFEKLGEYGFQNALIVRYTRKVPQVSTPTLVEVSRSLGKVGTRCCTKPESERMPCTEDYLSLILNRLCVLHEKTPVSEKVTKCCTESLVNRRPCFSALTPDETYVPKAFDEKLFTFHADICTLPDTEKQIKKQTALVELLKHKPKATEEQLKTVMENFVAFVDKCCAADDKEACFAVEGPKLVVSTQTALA

Molecule: C[C@H](CCC(=O)O)[C@H]1CC[C@H]2[C@@H]3[C@@H](O)C[C@@H]4C[C@H](O)CC[C@]4(C)[C@H]3CC[C@]12C [UDCA]
CMC […] Na+ [1]: 6.0 mM
STCMC (surface tension at CMC) [1]: 50.5 Dyne/cm
LogPA- (1-octanol-water partition coefficient, ionized species) [2]: 2.2
Albumin Binding [3]: 94%
LXRα Activation EC50 [4]: No activity
EC50 [5]: > 250 µM
Ws (water solubility, protonated species) [6]: 7.5 µM
EC50 [7]: > 1000 µM
VDR Activation EC50 [8]: No activity
PPARδ Activation EC50 [9]: No activity

half-life [10]: 8.5 min
Molecule: O=c1ccc2ccc(O)cc2o1 [7-Hydroxy Coumarine, reference compound]

Molecule: C[C@H](CCC(=O)O)[C@H]1CC[C@H]2[C@@H]3CC[C@@H]4C[C@H](O)CC[C@]4(C)[C@H]3CC[C@]12C [LCA, lithocholic acid]
LXRα Activation EC50 [4]: No activity
CAR Activation EC50 [5]: No activity
EC50 [11]: 65 µM
EC50 [12]: 105 µM
EC50 at 4 h [13]: 84 µM
VDR Activation EC50 [8]: No activity
PPARδ Activation EC50 [9]: No activity
FXR Activation EC50 [14]: No activity

Molecule: C[C@H](CCC(=O)O)[C@H]1CC[C@H]2[C@@H]3[C@H](O)C[C@@H]4C[C@H](O)CC[C@]4(C)[C@H]3CC[C@]12C [CDCA, ChenoDeoxyCholicAcid]
TGR5 Data Efficacy [15]: 100%
CMC […] Na+ [1]: 3.2 mM
STCMC (surface tension at CMC) [1]: 45.5 Dyne/cm
LogPA- (1-octanol-water partition coefficient, ionized species) [2]: 2.2
Albumin Binding [3]: 93%
metabolism (7-dehydroxylation) to lithocholic acid [16]: almost completely metabolized
half-life time ([16]; human): almost one hour
maximum bile flow rate ([17]; duodenal infusion 1 μmol/kg/min, 1 hour): ≤ 4.8 mL/h/kg
SV0: maximum bile secretion rate ([17]; id infusion): 57 ± 7 (μL/min)/kg bw
SV0: maximum bile secretion rate ([17]; iv infusion): (51 ± 9) (μL/min)/kg bw
LXRα Activation EC50 [4]: No activity
EC50 [5]: > 250 µM
EC50 [11]: 890 µM
EC50 [12]: > 1000 µM
VDR Activation EC50 [8]: No activity
PPARδ Activation EC50 [9]: No activity
fraction unbound at 4 h ([18]; iv): 0.04
fraction unbound at 4 h ([18]; other: duodenal infusion (id)): 0.03 ± 0.01

Molecule: C[C@H](CCC(=O)O)[C@H]1CC[C@H]2[C@@H]3[C@H](O)C[C@@H]4C[C@H](O)CC[C@]4(C)[C@H]3C[C@H](O)[C@]12C [CA, cholic acid]
SV0: maximum bile secretion rate ([17]; id infusion): 64 ± 6 (μL/min)/kg bw
SV0: maximum bile secretion rate ([17]; iv infusion): (78 ± 8) (μL/min)/kg bw
LXRα Activation EC50 [4]: No activity
prevention and treatment of metabolic syndrome [19]: efficiently prevents and treats metabolic syndrome
FXR Activation EC50 [14]: No activity

Molecule: Ex-4: the GLP-1 receptor agonist Ex-4
locomotor activity [20]: efficiently and dose-dependently reduced locomotor activity

Molecule: C[C@H](CCC(=O)O)[C@H]1CCC2C3C(CC[C@@]21C)[C@@]1(C)CC[C@@H](O)CC1[C@@H](C)[C@@H]3O (some centres unmarked) [Compound 6MUDCA]
Ws (water solubility, protonated species) [21]: 28* μM
CMC […] Na+ [22]: 4.2* mM
LogPA- (1-octanol-water partition coefficient, ionized species) [23]: 1.3*
Albumin Binding [24]: 80* %
